Source: a melting point compilation (Tetko et al.; mined from patent text by program, amines drawn as free bases though some values may be those of a salt)

| SMILES | melting point |
| --- | --- |
| c1cc2c(cc(-c3nnn[nH]3)c3nnnn32)s1 | 267 to 269 °C |
| O=S1(=O)CCN(CC#Cc2cnc3c(c2)N(Cc2cc(Cl)ccc2Cl)CCN3)CC1 | > 200 °C |
| COc1cccc2c1OC(CO)CN2 (stereo not drawn) | 108 to 110 °C |
| CC(C)N1CCN(c2cccc(N)c2)C(=O)C1 | 114 to 115 °C |
| COc1cc(-c2ncn(-c3cc(OC)c(OC)c(OC)c3)c2-c2ccc(N(C)C)cc2)cc(OC)c1OC | 169 to 171 °C |
| CCOCCn1c(C)nc2c(N)ncc(C)c21 | 129 to 130 °C |
| C=CCN[C@H]1CC(C(=O)OCC)=C[C@@H](OC(CC)CC)[C@@H]1NC(C)=O | 100 to 104 °C |
| O=C1N(CC2CCN(c3ccccn3)CC2)c2ccccc2C12COc1cc3c(cc12)OCO3 (stereo not drawn) | 95 to 97 °C |
| CCOC(=O)C1OC(n2cnc3c(N)ncnc32)C(O)C1N (stereo not drawn) | 179 to 182 °C |
| O=C(O)c1ccc(OC23CC4CC(CC(C4)C2)C3)cc1 | 223 to 226 °C |
| CC(c1ncnc(Cl)c1Cl)C(O)(Cn1cncn1)c1ccc(F)cc1F (stereo not drawn) | 124 °C |
| Clc1ccc([C@@]2(Cn3ccnc3)OC[C@H](COc3ccc4c(c3)CCN(CCCc3ccc(-c5ccccc5)cc3)C4)O2)c(Cl)c1 (racemic) | 125 to 127 °C |
| CCOC(=O)c1c(C)nc2[nH]ncc2c1OCC | 180 to 182 °C |
| Cc1c(NC(=O)c2ccc(-c3ccc(Cl)cc3)cc2)ccc2cc(CN3CCCC3)cnc12 | 227 to 229 °C |
| Cc1c(C)c2c(c(C)c1NC(=O)CC(C)(C)C)C(C1CCCCC1)C(C)(C)O2 (stereo not drawn) | 198 to 199 °C |
| O=[N+]([O-])c1cc(O)ccc1F | 86 to 87 °C |
| CN1C(=O)C(C)(C)N=C(c2ccccc2F)c2cc(N)ccc21 | 190 to 191 °C |
| COc1cc(Br)c(OC)c(C(N)=O)c1 | 222 to 225 °C |
| COc1ccc2c(c1)CCC1C2CCC2(C)C(=O)CC(C)(C)C12 (stereo not drawn) | 145 to 148 °C |
| CCCCNC(=S)Nc1ccc(NNC=O)cc1 | 129 to 131 °C |
| Cc1ccc(-c2cn(C)cc(-c3ccccc3C)c2=O)cc1 | 151 to 154 °C |

| SMILES | melting point |
| --- | --- |
| O=C(N[C@@H]1C(=O)N[C@@H]1C=Cc1ccccc1)OCc1ccccc1 | 201 to 204 °C |
| Cn1ccnc1Sc1ccc(Nc2c(C#N)cnc3cc(Br)ccc23)cc1Cl | 258 to 261 °C |
| COc1cc2c(c3c1OC(C)(C)C3)C(c1ccncc1Cl)=NC(C)(C)C2 | 126 to 128 °C |
| COC(=O)c1ncoc1-c1cccs1 | 64 to 66 °C |
| CN1CCN(c2ccc(-c3cc(-c4c(-c5ccccn5)nc5ccccn45)ccn3)cc2)CC1 | 150 °C |
| CC(C)(C)OC(=O)NC1CCCOCC=CC2CC2(C(=O)NS(=O)(=O)C2CC2)NC(=O)C2CC(OC(=O)C3CCCCC3)CN2C1=O (stereo not drawn) | 128 to 130 °C |
| O=[N+]([O-])C(Br)(Br)CCO | 22 to 25 °C |
| N#Cc1ccc(CN2CC=C(c3nc4ccccc4s3)CC2)cc1 | 165 to 166 °C |
| CS(=O)(=O)c1ccc(-c2[nH]c3ccc(Br)cc3c2-c2ccccc2)cc1 | 262 to 264 °C |
| O=[N+]([O-])c1ccc([N+](=O)[O-])c(OCC=CCBr)c1 | 81 to 83 °C |
| Cc1nccc(N2CCC(O)(CN3CCN(C(=O)c4ccc(F)cc4)CC3)CC2)n1 | 114 to 117 °C |
| CN1CCN(c2ncnc3nc(-c4ccncc4)[nH]c23)CC1 | 333 to 335 °C |
| CC1(C)CCC(C)(C)c2cc(O)ccc21 | 142 °C |
| CCC1(CCCBr)C(=O)NC(=O)NC1=O | 138 to 140 °C |
| CCOC(=O)C1(O)C(=O)Nc2c(OC)cc(CCNC(=O)C(F)(F)F)cc21 (stereo not drawn) | 115 to 117 °C |
| CN(C)C(=O)[C@@H]1CCCN1C(=O)OCc1ccccc1 | 66 to 67 °C |
| CCOC(=O)C(=NOC)C1=CSCCO1 | 64 to 66 °C |
| CC1(C)Oc2ccc(OCc3ccccc3)cc2C2OC21 (stereo not drawn) | 70 to 72 °C |
| O=C1NC(=O)C(c2ccc3cc(-c4ccc(O)c(C56CC7CC(CC(C7)C5)C6)c4)ccc3c2)S1 (stereo not drawn) | 312 to 314 °C |
| CC(C)NC(=O)Nc1ccc2c(c1Cl)C(c1ccccc1F)=NCC(=O)N2C | 130 to 140 °C |
| CC1(C)CC2(NC(=O)NC2=O)c2cc(Cl)ccc2O1 (stereo not drawn) | 281 to 283 °C |

More lines, now with the values ahead:

| melting point | SMILES |
| --- | --- |
| 255 to 256 °C | CCn1nc(-c2cnc(N)nc2-c2ccccc2)ccc1=O |
| 140 °C | O=C(O)CNC(=O)COc1c(F)cc(CSCCNS(=O)(=O)c2ccc(Cl)cc2)cc1F |
| 230 to 234 °C | NC(=O)C1C=Cc2cc(Cl)ccc2N1C(=O)c1ccccc1 (stereo not drawn) |
| 157 to 159 °C | COC(=O)c1cc2ccc3c(c2c(-c2ccc4c(c2)OCO4)c1C(=O)OC)OCO3 |
| 199 to 200 °C | CCOC(=O)c1cn(-c2ccccn2)c2occc2c1=O |
| 52 °C | COc1ccc(CN(CCN(C)CCCCCCN=C(NC#N)NCCSCc2csc(NC(=N)N)n2)c2ccccn2)cc1 |
| 96 to 97 °C | CC(C)Oc1cc(CCCOc2nn(C)cc2CC(=O)O)n(Cc2ccc(Cl)cc2Cl)n1 |
| 116 to 118 °C | COc1ccc(N(CCCC(O)CO)S(=O)(=O)c2c(F)c(F)c(F)c(F)c2F)cc1 (stereo not drawn) |
| 103 to 104 °C | CCCc1nn(C)c(C(N)=O)c1NC(=O)c1sccc1OCC |
| 155 to 156 °C | C[C@@H](N1CC(=O)N(c2ccc(OCC(F)(F)C(F)F)cc2)CC1=O)[C@@]1(c2ccc(F)cc2F)CO1 |
| 174 to 175 °C | CN(O)C(=O)c1cccc2c1[nH]c1c3cc(Br)ccc3oc21 |
| 196 to 197 °C | Cc1cc(C)c(Nc2nc(C)ccc2S(=O)(=O)c2cccc(O)c2)c(C)c1 |
| 189 to 190 °C | O=C1NC(=O)C(S(=O)(=O)c2cccc3c(Br)cccc23)S1 (stereo not drawn) |
| 99 to 100 °C | Cc1ccc(Cc2cnc(CCCOc3cc(CN4CCCCC4)ccn3)[nH]c2=O)cn1 |
| 202 to 203 °C | CCc1cccc(CC)c1NC(=O)C1c2ccccc2COc2ccc(C)cc21 (stereo not drawn) |
| 143 to 147 °C | CCC(C(=O)c1ccc(NS(C)(=O)=O)cc1)c1ccccc1 (stereo not drawn) |
| 210 to 211 °C | CC(CN(C)C)Oc1ccc(-c2nn(CC(=O)O)c3ncccc23)cc1 (stereo not drawn) |
| 201 to 202 °C | CCCS(=O)(=O)c1ccc(NS(=O)(=O)c2cccs2)c2[nH]c(C(=O)OCC)cc12 |
| 256 to 257 °C | Oc1ccc2c(-c3cc(F)ccc3F)noc2c1Cl |

| melting point | SMILES |
| --- | --- |
| 226 to 228 °C | CCOC(=O)C(=O)NC1N=C2C(=Cc3ccccc32)S1 (stereo not drawn) |
| 204 to 206 °C | CNc1nc(-c2cccc(NC(=O)c3ccccc3)c2)c2cc(OCc3ccccc3)c(OC)cc2n1 |
| 86 to 88 °C | CCCCCS(=O)(=O)NC(=O)/C=C/c1ccc(OCC(O)COC(C)C)cc1Oc1ncc(C(F)(F)F)cc1Cl (stereo not drawn) |
| 113 to 115 °C | CC(C)N1Cc2cc(CO)ccc2N(CCN2CC=C(c3c[nH]c4cc(F)ccc34)CC2)S1(=O)=O |
| 189 to 192 °C | NCCc1cc(-c2ccccc2)n(-c2ccc(S(N)(=O)=O)cc2)n1 |
| 136 to 138 °C | CC(C)C[C@H](NC(=O)[C@@H](O)[C@@H](Cc1ccc(S(C)(=O)=O)cc1)NC(=O)OCc1ccccc1)C(=O)OCc1ccccc1 |
| 125 to 126 °C | CC(C)CN/C(=C1/Sc2ccccc2C1=O)c1ccccc1 |
| 134 to 135 °C | CCCCCCc1ccc(-n2c(-c3ccc(C)cc3)cc(Br)c2-c2ccc(C)cc2)cc1 |
| 115 to 116 °C | COC(=O)C(Oc1ccc(C(=O)CN2CCN(c3ccncc3)CC2)cc1)C(=O)OC |
| 230 to 233 °C | CCNC(=O)Nc1ccc(-c2sc3c(c2CN(C)CCOCCOCC)c(=O)n(-c2ccccc2)c(=O)n3Cc2c(F)cccc2F)cc1 |
| 82 to 83 °C | CN1C(=O)C(c2ccc[nH]2)=C(c2cn(C(=O)OC(C)(C)C)c3ccccc23)C1=O |
| 113 to 114 °C | CC(C)c1nn(-c2ccc(C(F)(F)F)cn2)cc1CCCCOc1cc(CCC(=O)O)n(C)n1 |
| 177 to 180 °C | CCOC(=O)c1cnn(C)c1C(=O)Nc1ccn2nc(Br)nc2c1 |
| 279 to 281 °C | O=C(NCc1ccc(Cl)cc1)c1cnc2c(Cl)cccc2c1O |
| 170 to 173 °C | O=C(O)c1csc(-c2ccc(OCC(F)(F)C(F)F)cc2)n1 |
| 144 to 146 °C | CSc1ncc(F)c(NCc2ccccc2F)n1 |
| 62.5 to 63 °C | COC(=O)C(C)N(C(=O)CS)c1c(C)cccc1C (stereo not drawn) |
| 204 °C | CC(C)n1nc(-c2cnc(N)nc2-c2cccnc2)ccc1=O |
| 246 to 248 °C | CC(C)c1[nH]n(-c2c(Cl)cc(Cl)cc2Cl)c2nc(C(O)c3ccccc3)nc(=O)c1-2 (stereo not drawn) |

| melting point | SMILES |
| --- | --- |
| 213 to 214 °C | CCCCc1n[nH]c(C(=O)O)c1Cc1ccc(-c2ccccc2-c2nc(=O)o[nH]2)cc1 |
| 216 to 218 °C | Cc1cc(C)c(COc2cccc3c2C(=O)c2c(Cl)ccc(Cl)c2C3=O)c(C)c1 |
| 88 to 89 °C | CCOC(=O)/C=C/c1cn(Cc2ccccc2)nc1OCc1ccccc1 |
| 116 to 118 °C | NC(=O)c1cc(C(O)CN(Cc2ccccc2)Cc2ccccc2)cc2cc[nH]c12 (stereo not drawn) |
| 216 °C | CC(=O)N1CCc2cc(S(=O)(=O)n3c(CCC(=O)O)cc4nc(Cl)ccc43)ccc21 |
| > 190 °C | CC(=Cc1ccc(OCCCN(C)C)cc1)C(=O)O |
| 153 to 154 °C | O=CN(O)C(CO)CS(=O)(=O)c1ccc(-c2ccc(Cl)cc2)cc1 (stereo not drawn) |
| 192 °C | O=c1c2cncc3cccc(c32)n2c([N+](=O)[O-])ccc12 |
| 115 to 116 °C | CCCc1c(OCCCSc2c(F)cccc2C(=O)CCC(=O)O)ccc(C(C)=O)c1O |
| 84 to 87 °C | CC(=O)c1cccc2c1Cc1ccccc1-2 |
| 84 °C | CCC(C)N(C)C(=O)c1cc(-c2ccccc2)c2ccsc2c1 (stereo not drawn) |
| 207 to 208 °C | CCOC(=O)CCN(CC(N)=O)C(=O)Cn1cc(C)c(=O)[nH]c1=O |
| 118 to 120 °C | CC(=O)Nc1ccc(C(=O)N2CC2C#N)c(OC(C)=O)c1 (stereo not drawn) |
| 167 to 168 °C | CN(C)C(=O)Cc1cn(Cc2ccccc2)c2ccc(I)cc12 |
| 192 °C | CCOc1cc2c(cc1S(N)(=O)=O)C(CNC(=O)N1CC(C)=C(CC)C1=O)CCO2 (stereo not drawn) |
| 130 to 135 °C | CCn1nccc1Nc1cc(OC)ccc1C(=O)O |
| 172 to 174 °C | Cn1nccc1CCS(=O)Cc1ccc(OCc2coc(/C=C/c3ccc(C(F)(F)F)cc3)n2)cc1 (stereo not drawn) |
| 132 to 135 °C | CCSC1(CCO)C(=O)Nc2ccc(Cl)cc21 (stereo not drawn) |
